For assay [1], the system named is collagen I expression in NHDF. Put plainly: Collagen I expression in NHDF stimulated with vitamin C+TGF-beta, in situ immunolabeling. In kind it is cell-based, human. Particulars: 50 μg/ml, 72 hours. As for the experimental part:
Analysis of collagen I expression in NHDF stimulated with vitamin C+TGF-beta by in situ immunolabeling. Activated HMVEC release TGF-beta which stimulates extracellular matrix synthesis by NHDF. TGF-beta stimulates the synthesis of collagen and vitamin C its release, creating experimental conditions close to TSC pathology conditions.
Normal Human Dermal Fibroblasts (NHDF) • Cell type: NHDF, used at the 8th passage • Culture conditions: 37° C., 5% CO2 • Culture medium: DMEM supplemented with L-glutamine 2 mM, Penicillin 50 U/ml—Streptomycin 50 μg/ml Fetal calf serum (FCS) 10% • Assay medium: DMEM supplemented with L-glutamine 2 mM, Penicillin 50 U/ml, Streptomycin 50 μg/ml FCS 1%. Culture and Treatment
The fibroblasts were seeded in 96-well plates and cultured in culture medium for 24 hours. The medium was then replaced with assay medium containing or not (control) the test compounds or associations in presence or not (non-stimulated control) of the association vitamin C+TGF-beta (20 μg/ml+10 ng/ml). The cells were incubated for 72 hours. All experimental conditions were performed in n=3.
After incubation, culture media were discarded and the cells were rinsed, fixed and permeabilized.
The acquisition of the images (5 photos per well) was performed using INCell Analyzer™ 1000 (GE Healthcare). Representative images for each experimental condition were included in the report.
The labeling was quantified by the measurement of the fluorescence intensity normalized to the total number of cells (Integration of numerical data with the Developer Toolbox 1.5, GE Healthcare software).

Assay [2] has as its system HMVEC/NHDF co-culture. As to the kind of experiment: Pseudotube formation (branching points) in VEGF-stimulated HMVEC/NHDF co-culture, in situ immunolabeling. In kind it is cell-based, human. Particulars: VEGF 100 ng/ml, 10 days; for Number of branching points, Mean: n=3; for Number of branching points: single replicate. As to the method: Analysis of pseudotube formation in a HMVEC/NHDF co-culture by in situ immunolabeling.
Human Microvascular Endothelial Cells (HMVEC) • Cell type: HMVEC, used at the 7th passage
HMVEC/NHDF Co-Culture • Cell type: HMVEC+NHDF (50:50 ratio) • Culture conditions: 37° C., 5% CO2 • Co-culture medium: Endothelial Cell Basal Medium 2 (EBM-2) supplemented with Fetal calf serum (FCS) 5%, rhEGF, rhFGF, R3 IGF-1, hydrocortisone, vitamin C and gentamycin +
DMEM supplemented with L-glutamine 2 mM, Penicillin 50 U/ml, Streptomycin 50 μg/ml FCS 10%.
The HMVEC and NHDF were seeded in 96-well plates and co-cultured in co-culture medium for 24 hours. The medium was then removed and replaced by co-culture medium containing or not (control) the test compounds, associations or the reference, suramine at 5 μM, in presence or not (non-stimulated control) of the inducer, VEGF at 100 ng/ml. The cells were incubated for 10 days with treatment renewal after 72 hours of incubation. All experimental conditions were performed in n=3.
After incubation, culture media were discarded and the cells were rinsed, fixed and permeabilized. The cells were then labeled using a primary antibody anti-Von Willebrand Factor.
The formation of pseudotubes was observed using a NIKON Diaphot 300 microscope (lens×4). The images were captured (1 photo per well) using a NIKON DS-Fi1 camera and NIS-Elements 3.10 software. Then the number of branching points within the pseudotube network was counted on each image.

“And” between values parts separate entries of the source, which are not always exact repeats. Equal entries are not always repeated.

Consider `COc1cc2c(cc1O)CCC(C)(C)O2` [Dimethylmethoxy chromanol], for which, in assay [1] (NHDF + vitamin C+TGF-beta (20 μg/ml+10 ng/ml), n=3), the “Collagen I, Mean (basic data)” value is given as 274529. Also, the “Collagen I branching points (basic data)” value in assay [1] (NHDF + vitamin C+TGF-beta (20 μg/ml+10 ng/ml), single replicate) is 250891 and 283414 and 289284. In assay [1] (NHDF + vitamin C+TGF-beta), the “% Stimulated control (collagen I)” value turned out to be 73% and the “% inhibition (collagen I expression)” value is 71%. In addition, in assay [2] (6 μg/ml), the “% stimulated control (branching points)” value was found to be 79%; the “Number of branching points, Mean” value came out at 98; the “Number of branching points” value is 83 and 104 and 109. In addition, in assay [2] (Homo sapiens, 240 h, 6 μg/ml), the inhibition at 6 µg/mL amounted to 21%.

In the case of `Oc1ccc(/C=C/c2cc(O)cc(O)c2)cc1` [Resveratrol, 3,5,4′-trihydroxy-trans-stilbene], in assay [2] (2 μg/ml), the “% stimulated control (branching points)” value is recorded as 113%; the “Number of branching points, Mean” value is 141; the “Number of branching points” value was 139 and 157 and 126. For the same molecule, the inhibition at 2 µg/mL in assay [2] (Homo sapiens, 240 h, 2 μg/ml) was -13%.

Take `Cc1ccc(C(=O)Nc2ccc(S(=O)(=O)O)c3cc(S(=O)(=O)O)cc(S(=O)(=O)O)c23)cc1NC(=O)c1cccc(NC(=O)Nc2cccc(C(=O)Nc3cc(C(=O)Nc4ccc(S(=O)(=O)O)c5cc(S(=O)(=O)O)cc(S(=O)(=O)O)c45)ccc3C)c2)c1` [Suramine, reference compound]: in assay [2] (5 μM), the “% stimulated control (branching points)” value stood at 63%; the “Number of branching points, Mean” value is 78; the “Number of branching points” value was 72 and 85 and 79. For the same molecule, the inhibition at 5 µM in assay [2] (Homo sapiens, 240 h, 5 μM) was determined as 37%.
